Data from patent US10328143B2, “Hemagglutinin-binding peptide” (priority 2014, dated 2019).

System: influenza virus H5N1-Vac3
Type: cell-based

Substance | anti-viral effect | anti-viral effect at low concentration
Cyclo(Ac-Trp-Thr-MeGly-Asp-MePhe-MePhe-Ser-MeSer-His-Tyr-Thr-Val-Pro-Ala-Cys)-amide [iHA-100-R14A] | high anti-viral effect | high anti-viral effect even when their concentration is low
Cyclo(Ac-Trp-Thr-MeGly-Asp-MePhe-MePhe-Ser-MeSer-His-Tyr-Thr-Val-Pro-Dap-Cys)-amide [iHA-100-R14Dap] | high anti-viral effect | high anti-viral effect even when their concentration is low
Cyclo(Ac-Trp-Thr-MeGly-Asp-MePhe-MePhe-Ser-MeSer-His-Tyr-Thr-Val-Pro-Glu-Cys)-amide [iHA-100-R14E] | high anti-viral effect | 
